For four compounds, Efficacy results are on record in US9725414B2, “Fungicidal N-bicycloalkyl and N-tricycloalkyl pyrazole-4-(thio)carboxamide derivatives” (priority 2011, dated 2017).

For assay [1], the system named is Sphaerotheca fuliginea. As to the kind of experiment: Example A: in vivo preventive test on Sphaerotheca fuliginea (cucumber). Conditions: 500 ppm of active ingredient, evaluated 7 days after inoculation. How it is done:
In Vivo Preventive Test on Sphaerotheca fuliginea (Cucumber) Solvent: 49 parts by weight of N,N-dimethylformamide Emulsifier: 1 part by weight of alkylarylpolyglycolether To produce a suitable preparation of active compound, 1 part by weight of active compound is mixed with the stated amounts of solvent and emulsifier, and the concentrate is diluted with water to the desired concentration. To test for preventive activity, young plants are sprayed with the preparation of active compound at the stated rate of application. One day after this treatment, the plants are inoculated with an aqueous spore suspension of Sphaerotheca fuliginea. Then the plants are placed in a greenhouse at approximately 23° C. and a relative atmospheric humidity of approximately 70%.

Assay [2] relates to Alternaria brassicae. Description: Example D: in vivo preventive test on Alternaria brassicae (leaf spot on radish). The conditions noted are these: 500 ppm of active ingredient, grading 6 days after contamination. The essentials:
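Radish plants at cotyledon stage were sprayed with compound; controls got the acetone/tween/DMSO/water mix alone. After 24 h they were inoculated with Alternaria brassicae spores (50 000 spores per mL) and kept at 20 °C, 100% relative humidity. % efficacy versus controls was graded 6 days post-inoculation.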

For `Cn1nc(C(F)F)c(C(=O)N(CC2CC3CCC2C3)C2CC2)c1F` (stereo not shown) [Example 71], in assay [1], the Efficacy amounted to 100%.

With `Cn1nc(C(F)F)c(C(=O)N(CC2(Cc3ccccc3)CC3CCC2C3)C2CC2)c1F` (stereo not shown) [Example 69], the Efficacy in assay [2] is given as 96%.

In turn, `Cn1nc(C(F)F)c(C(=O)N(C2CC2)C2CCCC3CCCC32)c1F` (stereo not shown) [Example 19] came in with an Efficacy in assay [2] of 100%.

The compound `CC(C1CC2CCC1C2)N(C(=O)c1c(C(F)F)nn(C)c1F)C1CC1` (stereo not shown) [Example 93] displayed an Efficacy in assay [1] of 100%.
